The values below come from patent publication US20230227426A1 (Akebia Therapeutics, Inc., priority 2020, published 2023).

Assay type in all cases: biochemical
For one test, the target named is T1, full-length human PHD1 (Homo sapiens, UniProt Q96KS0).
T1 construct: FLAG (N); purchased Active Motif (Carlsbad, Calif., USA) 81064; host or cells: baculovirus expression system
In words: TR-FRET assay for PHD enzymes, PHD1. From the text: (§1) The resulting proximity of the donor fluorophore complex, monoclonal antibody anti-6His-Terbium (Tb)-cryptate Gold, bound to the His-tagged VHL protein, EloB, EloC complex (His-VBC) and the acceptor fluorophore, SA-D2 complex, bound to HIF-1α-hydroxyproline results in a fluorescence resonance energy transfer signal that can be detected and quantified
Recombinant human PHD1 protein (catalog #81064, Lot #24717001) was purchased from Active Motif (Carlsbad, Calif., USA). PHD1 was expressed in a baculovirus expression system as the full-length protein (NCBI accession number NP_542770.2) with an N-terminal FLAG tag (molecular weight 44.9 kDa). Purity (>90%) was assessed by SDS-PAGE.
(§2) For this, 5 μL PHD inhibitor compound was serially diluted with dilution buffer (50 mM HEPES [4-(2-hydroxyethyl)-1-piperazineethanesulfonic acid] pH 7.5, 50 mM sodium chloride [NaCl], 0.01% Tween-20, 0.01% purified bovine serum albumin [BSA]) and mixed with 5 μL PHD enzyme mix prepared as a 4× concentrate in the dilution buffer containing PHD enzyme (60 nM PHD1, 20 nM PHD2, 140 nM PHD3), 40 μM ferrous ammonium sulfate (FAS), 4 mM sodium (Na) ascorbate.
(§3) The IC50 values (mean, standard deviation, standard error of the mean, geometric mean and 95% confidence interval) were determined using a four-parameter curve-fit using GraphPad Prism 7.0 (GraphPad, La Jolla, Calif., USA) and represent the compound concentration plotted against the calculated ratio of 665 nm and 615 nm.
On the technique in general: TR-FRET usually uses a lanthanide donor and a delayed reading to cut background.

Another test concerns the target T2, full-length human PHD2 (Homo sapiens, UniProt Q9GZT9).
T2 construct: The PHD2 construct contained amino acids 1 to 426 of PHD2; His tag (N, cleaved yes); TEV protease cleavage site (N, cleaved yes); host or cells: Sf9 insect cells (baculovirus)
In words: TR-FRET assay for PHD enzymes, PHD2. Particulars: read-out: PHD2 IC5 0. On the procedure:
as §1, §2, §3

A further test deals with T3, full-length human PHD3 (Homo sapiens, UniProt Q9H6Z9).
T3 construct: 6-His (N); purchased Active Motif (Carlsbad, Calif., USA) 81033; host or cells: E. coli
T3 sequence (Q9H6Z9 whole entry): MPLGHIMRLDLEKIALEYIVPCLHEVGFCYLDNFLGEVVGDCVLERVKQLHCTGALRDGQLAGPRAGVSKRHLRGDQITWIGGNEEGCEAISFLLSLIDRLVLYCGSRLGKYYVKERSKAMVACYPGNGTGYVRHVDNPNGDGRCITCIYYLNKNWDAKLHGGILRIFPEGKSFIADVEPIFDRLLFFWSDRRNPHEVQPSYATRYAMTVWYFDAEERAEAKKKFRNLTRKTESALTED
In words: TR-FRET assay for PHD enzymes, PHD3.
Text: as §1
Recombinant human PHD3 protein (molecular weight 31.1 kDa) was purchased from Active Motif (Carlsbad, Calif., USA). It was expressed in E. coli as the full-length protein (NCBI accession number NP_071356.1) with an N-terminal 6-His tag (catalog #81033, Lot #24417001).
as §2, §3

Some results are limits rather than exact numbers.

T2 sequence (Q9GZT9 whole entry, the tested form may be a part): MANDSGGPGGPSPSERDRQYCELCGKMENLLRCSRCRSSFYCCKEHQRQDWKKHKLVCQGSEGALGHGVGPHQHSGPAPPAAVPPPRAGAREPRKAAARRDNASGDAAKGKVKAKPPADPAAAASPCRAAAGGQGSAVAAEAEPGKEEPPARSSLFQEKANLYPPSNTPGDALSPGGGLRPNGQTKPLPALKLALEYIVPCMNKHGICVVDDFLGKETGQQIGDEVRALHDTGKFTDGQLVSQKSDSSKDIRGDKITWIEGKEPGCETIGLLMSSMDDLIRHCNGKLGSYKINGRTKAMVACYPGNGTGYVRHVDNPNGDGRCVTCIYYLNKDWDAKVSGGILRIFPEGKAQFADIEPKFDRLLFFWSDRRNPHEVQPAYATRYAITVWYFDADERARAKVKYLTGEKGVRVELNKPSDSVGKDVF
T1 sequence (Q96KS0 whole entry): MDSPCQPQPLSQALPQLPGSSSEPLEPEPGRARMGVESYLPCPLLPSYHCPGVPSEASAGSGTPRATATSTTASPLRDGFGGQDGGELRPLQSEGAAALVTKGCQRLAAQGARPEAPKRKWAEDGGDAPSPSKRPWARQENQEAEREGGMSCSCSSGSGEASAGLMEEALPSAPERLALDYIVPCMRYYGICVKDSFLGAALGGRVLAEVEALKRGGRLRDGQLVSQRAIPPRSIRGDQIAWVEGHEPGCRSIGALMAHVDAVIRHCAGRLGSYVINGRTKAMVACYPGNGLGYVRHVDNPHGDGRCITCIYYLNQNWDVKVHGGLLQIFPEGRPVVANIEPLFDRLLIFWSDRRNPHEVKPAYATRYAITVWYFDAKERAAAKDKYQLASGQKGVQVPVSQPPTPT

For the molecule `Cc1ccc(-c2cnn(-c3ccc(C(=O)OC(C)(C)C)cn3)c2O)cc1` [Compound 1, Tert-butyl 6-(5-hydroxy-4-(p-tolyl)-1H-pyrazol-1-yl)nicotinate], the values for the IC50 against full-length human PHD1 and on full-length human PHD2 were 100 to 1000 nM and 1000 to 10000 nM, respectively.
On to `CC(C)(C)OC(=O)c1ccc(-n2ncc(-c3ccc(Br)cc3)c2O)nc1` [Compound 2, Tert-butyl 6-(4-(4-bromophenyl)-5-hydroxy-1H-pyrazol-1-yl)nicotinate], for which the results for the IC50 on full-length human PHD1 and on full-length human PHD2 were 100 to 1000 nM and at least 10000 nM, respectively.
For `O=C(O)c1ccc(-n2ncc(-c3ccc(Br)cc3)c2O)nc1` [Compound 3, 6-(4-(4-Bromophenyl)-5-hydroxy-1H-pyrazol-1-yl) nicotinic acid], the IC50 is under 100 nM against full-length human PHD1, under 100 nM at full-length human PHD2 and 100 to 1000 nM against full-length human PHD3.
`CC(C)(C)OC(=O)c1ccc(-n2ncc(-c3ccc(Cl)cc3)c2O)nc1` [Compound 4, Tert-butyl 6-(4-(4-chlorophenyl)-5-hydroxy-1H-pyrazol-1-yl)nicotinate]: the IC50 was in the range of 100 to 1000 nM against full-length human PHD1 and 1000 to 10000 nM on full-length human PHD2.
In the case of `O=C(O)c1ccc(-n2ncc(-c3ccc(Cl)cc3)c2O)nc1` [Compound 5, 6-(4-(4-Chlorophenyl)-5-hydroxy-1H-pyrazol-1-yl)nicotinic acid], the IC50 was under 100 nM on full-length human PHD1, under 100 nM on full-length human PHD2 and 100 to 1000 nM against full-length human PHD3.
In the case of `CC(C)(C)OC(=O)c1ccc(-n2ncc(-c3ccc(F)cc3)c2O)nc1` [Compound 6, Tert-butyl 6-(4-(4-fluorophenyl)-5-hydroxy-1H-pyrazol-1-yl)nicotinate], the IC50 is under 100 nM against full-length human PHD1 and 1000 to 10000 nM on full-length human PHD2.
`O=C(O)c1ccc(-n2ncc(-c3ccc(F)cc3)c2O)nc1` [Compound 7, 6-(4-(4-Fluorophenyl)-5-hydroxy-1H-pyrazol-1-yl)nicotinic acid]: the IC50 is under 100 nM against full-length human PHD1, under 100 nM at full-length human PHD2 and 1000 to 10000 nM on full-length human PHD3.
`Cc1cc(C#N)ccc1-c1cnn(-c2ccc(C(=O)OC(C)(C)C)cn2)c1O` [Compound 8, Tert-butyl 6-(4-(4-cyano-2-methylphenyl)-5-hydroxy-1H-pyrazol-1-yl)nicotinate]: the IC50 against full-length human PHD1, on full-length human PHD2 and against full-length human PHD3 was under 100 nM each time.
Regarding `Cc1nn(-c2ccc(C(=O)O)cn2)c(O)c1-c1ccc(C#N)cc1` [Compound 9, 6-(4-(4-Cyanophenyl)-5-hydroxy-3-methyl-1H-pyrazol-1-yl)nicotinic acid], the IC50 against full-length human PHD1, at full-length human PHD2 and against full-length human PHD3 was under 100 nM each time.
Take `Cc1nn(-c2ccc(C(=O)OC(C)(C)C)cn2)c(O)c1-c1ccc(C#N)cc1` [Compound 10, Tert-butyl 6-(4-(4-cyanophenyl)-5-hydroxy-3-methyl-1H-pyrazol-1-yl)nicotinate]: the results for the IC50 on full-length human PHD1, at full-length human PHD2 and against full-length human PHD3 were under 100 nM, under 100 nM and at least 10000 nM, respectively.
For the molecule `COC(=O)c1ccc(-n2nc(C)c(-c3ccc(C#N)cc3)c2O)nc1` [Compound 11, Methyl 6-(4-(4-cyanophenyl)-5-hydroxy-3-methyl-1H-pyrazol-1-yl)nicotinate], the values for the IC50 on full-length human PHD1, at full-length human PHD2 and at full-length human PHD3 were under 100 nM, under 100 nM and 100 to 1000 nM, respectively.
`N#Cc1ccc(-c2cnn(-c3ncc(C(=O)O)cc3F)c2O)cc1` [Compound 14, 6-(4-(4-cyanophenyl)-5-hydroxy-1H-pyrazol-1-yl)-5-fluoronicotinic acid]: the IC50 against full-length human PHD1 and at full-length human PHD2 was 1000 to 10000 nM throughout.
For the molecule `Cc1nn(-c2ccc(C(=O)O)cn2)c(O)c1-c1ccc(Cl)cc1` [Compound 15], the IC50 on full-length human PHD1 and on full-length human PHD2 was under 100 nM in each case.
As to `Cc1nc(-n2nc(C)c(-c3ccc(C#N)cc3)c2O)ccc1C(=O)O` [Compound 19, 6-(4-(4-cyanophenyl)-5-hydroxy-3-methyl-1H-pyrazol-1-yl)-2-methylnicotinic acid], the IC50 at full-length human PHD1 and at full-length human PHD2 was 1000 to 10000 nM in each case.
In the case of `Cc1nn(-c2ccc(C(=O)O)cn2)c(O)c1-c1ccc(Cl)cn1` [Compound 20, 6-(4-(5-chloropyridin-2-yl)-5-hydroxy-3-methyl-1H-pyrazol-1-yl)nicotinic acid], the IC50 was under 100 nM at full-length human PHD1 and 100 to 1000 nM on full-length human PHD2.
For `O=C(O)c1ccc(-n2ncc(-c3ccc(Cl)c(O)c3)c2O)nc1` [Compound 22, 6-(4-(4-chloro-3-hydroxyphenyl)-5-hydroxy-1H-pyrazol-1-yl)nicotinic acid], the IC50 at full-length human PHD1 and at full-length human PHD2 was under 100 nM in each case.
With `Cc1nn(-c2ccc(C(=O)O)cn2)c(O)c1-c1ccc(C#N)c(F)c1` [Compound 23, 6-(4-(4-cyano-3-fluorophenyl)-5-hydroxy-3-methyl-1H-pyrazol-1-yl)nicotinic acid], the IC50 on full-length human PHD1 and on full-length human PHD2 was under 100 nM each time.
Turning to `Cc1nn(-c2ccc(C(=O)O)cn2)c(O)c1-c1ccc(C#N)cc1F` [Compound 25, 6-(4-(4-cyano-2-fluorophenyl)-5-hydroxy-3-methyl-1H-pyrazol-1-yl)nicotinic acid], the IC50 at full-length human PHD1 and at full-length human PHD2 was under 100 nM throughout.
Turning to `Cc1nn(-c2cc(N)c(C(=O)O)cn2)c(O)c1-c1ccc(C#N)cc1` [Compound 27, 4-amino-6-(4-(4-cyanophenyl)-5-hydroxy-3-methyl-1H-pyrazol-1-yl)nicotinic acid], the IC50 at full-length human PHD1 and at full-length human PHD2 was under 100 nM in each case.
Take `Cc1cc(-c2c(C)nn(-c3ccc(C(=O)O)cn3)c2O)ccc1C#N` [Compound 29, 6-(4-(4-cyano-3-methylphenyl)-5-hydroxy-3-methyl-1H-pyrazol-1-yl)nicotinic acid]: the IC50 on full-length human PHD1 and on full-length human PHD2 was under 100 nM throughout.
Turning to `N#Cc1ccc(-c2cnn(-c3ccc(C(=O)O)cn3)c2O)c(Cl)c1` [Compound 30, 6-(4-(2-chloro-4-cyanophenyl)-5-hydroxy-1H-pyrazol-1-yl)nicotinic acid], the IC50 at full-length human PHD1 and on full-length human PHD2 was under 100 nM in each case.
As to `Cc1cc(C#N)cc(C)c1-c1cnn(-c2ccc(C(=O)O)cn2)c1O` [Compound 31, 6-(4-(4-cyano-2,6-dimethylphenyl)-5-hydroxy-1H-pyrazol-1-yl)nicotinic acid], the values for the IC50 against full-length human PHD1 and at full-length human PHD2 were under 100 nM and 100 to 1000 nM, respectively.
For `COc1ccc(-c2c(C)nn(-c3ccc(C(=O)O)cn3)c2O)cc1C` [Compound 32, 6-(5-hydroxy-4-(4-methoxy-3-methylphenyl)-3-methyl-1H-pyrazol-1-yl)nicotinic acid], in that order: 100 to 1000 nM and 100 to 1000 nM.
In the case of `CCc1cc(C#N)ccc1-c1cnn(-c2ccc(C(=O)O)cn2)c1O` [Compound 33, 6-(4-(4-cyano-2-ethylphenyl)-5-hydroxy-1H-pyrazol-1-yl)nicotinic acid], the IC50 at full-length human PHD1 and on full-length human PHD2 was under 100 nM throughout.
On to `Cc1nn(-c2cnc(C(=O)O)cn2)c(O)c1-c1ccc(C#N)cc1` [Compound 34, 5-(4-(4-cyanophenyl)-5-hydroxy-3-methyl-1H-pyrazol-1-yl)pyrazine-2-carboxylic acid], for which the IC50 on full-length human PHD1 and on full-length human PHD2 was under 100 nM throughout.
In the case of `N#Cc1ccc(-c2cnn(-c3ccc(C(=O)O)cn3)c2O)c(C(F)(F)F)c1` [Compound 40, 6-(4-(4-cyano-2-(trifluoromethyl)phenyl)-5-hydroxy-1H-pyrazol-1-yl)nicotinic acid], the IC50 against full-length human PHD1 and at full-length human PHD2 was under 100 nM each time.
Turning to `Cc1nn(-c2ccc(C(=O)O)cn2)c(O)c1-c1cc[n+]([O-])cc1` [Compound 41, 4-(1-(5-carboxypyridin-2-yl)-5-hydroxy-3-methyl-1H-pyrazol-4-yl)pyridine 1-oxide], the IC50 against full-length human PHD1 and at full-length human PHD2 was at least 10000 nM throughout.
`Cc1nn(-c2ccc(C(=O)O)cn2)c(O)c1-c1ccc(Cl)c(C#N)c1` [Compound 42, 6-(4-(4-chloro-3-cyanophenyl)-5-hydroxy-3-methyl-1H-pyrazol-1-yl)nicotinic acid]: the IC50 against full-length human PHD1 and at full-length human PHD2 was under 100 nM each time.
For the molecule `COc1ccc(-c2cnn(-c3ccc(C(=O)O)cn3)c2O)cn1` [Compound 43, 6-(5-Hydroxy-4-(6-methoxypyridin-3-yl)-1H-pyrazol-1-yl)nicotinic acid], the IC50 against full-length human PHD1 and on full-length human PHD2 was under 100 nM each time.
On to `Cc1nn(-c2ccc(C(=O)O)cn2)c(O)c1-c1ccc(C#N)c(Cl)c1` [Compound 44, 6-(4-(3-chloro-4-cyanophenyl)-5-hydroxy-3-methyl-1H-pyrazol-1-yl)nicotinic acid], for which the IC50 against full-length human PHD1 and on full-length human PHD2 was under 100 nM in each case.
